# Test results: patent US8703811B2, “Small molecule inhibitors of Plasmodium falciparum dihydroorotate dehydrogenase” (Genzyme Corporation, priority 2008, dated 2014)
# Like-named read-outs stand apart in the source and are kept apart here.
# Experiments:
# [1] = target: pfDHODH (Plasmodium falciparum (isolate 3D7), UniProt Q08210); test: DHODH chromogen reduction (DCIP) assay, pfDHODH; assay type: biochemical, P. falciparum
# From the text: (§1) Type 2 DHODH activity was monitored with either the direct assay measuring the formation of orotate or via a chromogen reduction assay using DCIP. Although the extinction coefficient and absorption wavelength are preferable for the chromogen reduction assay, the inorganic electron acceptor DCIP can be utilized by DHODH as the final electron acceptor in lieu of CoQn when the endogenous substrate is at a low concentration. As such, the direct assay was used to measure the binding affinity of pfDHODH to CoQD and L-DHO. The enzymatic reaction was performed by varying the L-DHO concentration (1-400 μM) or CoQD concentration (1-200 μM) while keeping the other substrate constant and in excess.
# (§2) Substrate specificity and enzyme inhibition data was analyzed with GraphPad Prism Version 4 for Windows (GraphPad Software). Kinetic constants were calculated by non-linear regression fitting of the data to the Michaelis-Menten equation [36]. IC50 values were determined by non-linear regression fitting of the data to Equation 1: […]
# [2] = target: hsDHODH (Homo sapiens (Human), UniProt Q02127); test: DCIP assay, hsDHODH; assay type: biochemical; conditions: Table 2b; read-out: Hu (human DHODH) IC50
# hsDHODH, sequence (Q02127 29-395 limits assumed): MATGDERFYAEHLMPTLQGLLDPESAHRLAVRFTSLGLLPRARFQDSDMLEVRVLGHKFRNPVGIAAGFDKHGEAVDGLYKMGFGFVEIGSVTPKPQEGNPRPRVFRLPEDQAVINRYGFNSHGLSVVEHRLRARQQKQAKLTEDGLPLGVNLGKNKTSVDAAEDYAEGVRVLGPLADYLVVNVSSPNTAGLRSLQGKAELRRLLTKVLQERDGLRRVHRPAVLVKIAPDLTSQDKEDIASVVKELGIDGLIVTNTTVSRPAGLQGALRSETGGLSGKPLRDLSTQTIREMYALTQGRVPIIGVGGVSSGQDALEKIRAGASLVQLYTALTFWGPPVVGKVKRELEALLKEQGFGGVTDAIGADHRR
# From the text: as §1, with “excess. The formation of orotate was measured continuously at 296 nm (ε296=4.3 mM^−1 cm^−1). Inhibition of DHODH by small molecules was evaluated using the chromogen based assay with a final substrate concentration of 200 μM L-DHO, 18 μM CoQD, and 100 μM DCIP, unless otherwise noted. The reduction of DCIP was monitored at 600 nm (ε600=18.8 mM^−1 cm^−1).” for “excess.”
# as §2
# [3] = test system: P. falciparum 3D7; test: Inhibition of in vitro P. falciparum culture, [3H]-hypoxanthine uptake, 3D7; assay type: cell-based
# Experimental: (§3) P. falciparum strains D10, 3D7, HB3, and Dd2 were obtained from the Malaria Research and Reference Reagent Resource Center (Manassas, Va.). The parasite strains were maintained in vitro by method of Trager and Jensen. The inhibition of P. falciparum growth in the presence of drug was assessed by the relative reduction of [^3H]-hypoxanthine uptake as previously described. Inhibition data were fitted to Equation 1 using non-linear regression analysis except that the relative velocity of parasite growth was substituted for the rate of product formation.
# [4] = test system: P. falciparum Dd2; test: Inhibition of in vitro P. falciparum culture, [3H]-hypoxanthine uptake, Dd2; assay type: cell-based
# Experimental: as §3
# [5] = Table 2b, read-out: pfDHODH IC50
# [6] = Plasmodium falciparum, 3D7, Table 2b, read-out: 3D7 EC50
# [7] = Plasmodium falciparum, DD2, Table 2b, read-out: Dd2 EC50
# pfDHODH, sequence (Q08210 159-565 limits assumed): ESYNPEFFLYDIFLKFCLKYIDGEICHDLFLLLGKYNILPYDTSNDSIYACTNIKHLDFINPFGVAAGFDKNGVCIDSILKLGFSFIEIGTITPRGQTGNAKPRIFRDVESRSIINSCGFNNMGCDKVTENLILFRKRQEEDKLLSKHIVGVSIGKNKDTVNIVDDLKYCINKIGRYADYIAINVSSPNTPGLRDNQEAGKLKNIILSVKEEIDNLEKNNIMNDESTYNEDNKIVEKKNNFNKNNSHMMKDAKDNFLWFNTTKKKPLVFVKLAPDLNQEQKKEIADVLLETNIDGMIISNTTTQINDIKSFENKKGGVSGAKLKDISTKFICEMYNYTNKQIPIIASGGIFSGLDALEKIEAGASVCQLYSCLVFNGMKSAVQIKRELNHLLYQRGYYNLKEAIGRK
structure (smiles),measurement,setting,value
O=C(NC1CCCC1)c1ccc(-n2cnc3ccccc32)s1 [Compound 35],IC50,[1]; [5],2510 nM
same,IC50,[2],> 30000 nM
same,EC50,[3]; [6],4400 nM
same,EC50,[4]; [7],5500 nM
Cc1nc(-c2ccc(F)cc2)cn1-c1ccc(C(=O)NC2CC2)s1 [Compound 76],IC50,[1]; [5],240 nM
same,IC50,[2],> 30000 nM
same,EC50,[3]; [6],226 nM
same,EC50,[4]; [7],217 nM
Cc1nc2cc(Cl)ccc2n1-c1ccc(C(=O)NC2CC2)s1 [Compound 40],IC50,"[1]; pfDHODH IC50, Table 2b",58 nM
same,IC50,[2],> 30000 nM
same,EC50,"[3]; Plasmodium falciparum, 3D7, read-out: 3D7 EC50, Table 2b",88 nM
same,EC50,"[4]; Plasmodium falciparum, DD2, read-out: Dd2 EC50, Table 2b",120 nM
"CCCCC(=O)c1ccc(-n2cnc3ccccc32)s1 [Compound 84, 1-[5-(1H-benzimidazol-1-yl)-2-thienyl]pentan-1-one]",IC50,[1]; [5],> 30000 nM
same,IC50,[2],> 30000 nM
same,EC50,[3]; [6],> 40000 nM
same,EC50,[4]; [7],20000 nM
Cc1nc2cc(F)ccc2n1-c1ccc(C(=O)NC2CC2)s1 [Compound 43],IC50,[1]; [5],104 nM
same,IC50,[2],20300 nM
same,EC50,"[3]; Table 2b, read-out: 3D7 EC50",39 nM
same,EC50,"[4]; Table 2b, read-out: Dd2 EC50",36 nM
CCNC(=O)c1ccc(-n2cnc3cc(F)ccc32)s1 [Compound 68],IC50,[1]; [5],105 nM
same,IC50,[2],> 30000 nM
same,EC50,[3]; [6],90 nM
same,EC50,[4]; [7],132 nM
CCNC(=O)c1ccc(-n2c(C)nc3ccccc32)s1 [Compound 33],IC50,[1]; [5],191 nM
same,IC50,[2],> 30000 nM
same,EC50,"[3]; Table 2b, read-out: 3D7 EC50",113 nM
same,EC50,"[4]; Table 2b, read-out: Dd2 EC50",223 nM
Cc1nc2cc(F)ccc2n1-c1ccc(C(=O)NC2CC2)s1 [Compound 42],IC50,[1]; [5],88 nM
same,IC50,[2],> 30000 nM
same,EC50,"[3]; Table 2b, read-out: 3D7 EC50",104 nM
same,EC50,"[4]; Table 2b, read-out: Dd2 EC50",150 nM
O=C(NCCO)c1ccc(-n2cnc3ccccc32)s1 [Compound 30],IC50,[1]; [5],14000 nM
same,IC50,[2],> 30000 nM
same,EC50,[3]; [6],5900 nM
same,EC50,[4]; [7],6500 nM
CCc1nc2ccccc2n1-c1ccc(C(=O)NC2CC2)s1 [Compound 49],IC50,[1]; [5],113 nM
same,IC50,[2],> 30000 nM
same,EC50,[3]; [6],125 nM
same,EC50,[4]; [7],185 nM
Cc1nc2ccc(OC(F)(F)F)cc2n1-c1ccc(C(=O)NC2CC2)s1 [Compound 58],IC50,[1]; [5],36 nM
same,IC50,[2],> 30000 nM
same,EC50,[3]; [6],9 nM
same,EC50,[4]; [7],16 nM
CCNC(=O)c1ccc(-n2cnc3ccccc32)s1 [Compound 25],IC50,[1]; [5],145 nM
same,IC50,[2],> 30000 nM
same,EC50,[3]; [6],102 nM
same,EC50,[4]; [7],154 nM
Cc1nc2cc(OC(F)(F)F)ccc2n1-c1ccc(C(=O)NC2CC2)s1 [Compound 57],IC50,[1]; [5],64 nM
same,IC50,[2],> 30000 nM
same,EC50,[3]; [6],33 nM
same,EC50,[4]; [7],60 nM
COc1ccc2c(c1)nc(C)n2-c1ccc(C(=O)NC2CC2)s1 [Compound 39],IC50,[1]; [5],212 nM
same,IC50,[2],24600 nM
same,EC50,[3]; [6],180 nM
same,EC50,[4]; [7],247 nM
CCNC(=O)c1ccc(-n2c(C)nc3cc(C)ccc32)s1 [Compound 62],IC50,[1]; [5],112 nM
same,IC50,[2],> 30000 nM
same,EC50,[3]; [6],89 nM
same,EC50,[4]; [7],87 nM
CCNC(=O)c1ccc(-n2c(CC)nc3cc(F)ccc32)s1 [Compound 69],IC50,[1]; [5],178 nM
same,IC50,[2],> 30000 nM
same,EC50,[3]; [6],226 nM
same,EC50,[4]; [7],361 nM
O=C(NC1CC1)c1ccc(-n2cnc3cc(F)ccc32)s1 [Compound 70],IC50,[1]; [5],58 nM
same,IC50,[2],> 30000 nM
same,EC50,[3]; [6],62 nM
same,EC50,[4]; [7],105 nM
Cc1nc2cc3c(cc2n1-c1ccc(C(=O)NC2CC2)s1)OCO3 [Compound 90],IC50,[1]; [5],116 nM
same,IC50,[2],> 30000 nM
same,EC50,[3]; [6],220 nM
same,EC50,[4]; [7],174 nM
Cc1ccc2c(c1)ncn2-c1ccc(C(=O)NC2CC2)s1 [Compound 60],IC50,[1]; [5],38 nM
same,IC50,[2],24600 nM
same,EC50,[3]; [6],20 nM
same,EC50,[4]; [7],21 nM
CC(C)NC(=O)c1ccc(-n2cnc3ccccc32)s1 [Compound 36],IC50,[1]; [5],684 nM
same,IC50,[2],> 30000 nM
same,EC50,[3]; [6],579 nM
same,EC50,[4]; [7],812 nM
CCc1nc2cc(F)ccc2n1-c1ccc(C(=O)NC2CC2)s1 [Compound 66],IC50,[1]; [5],67 nM
same,IC50,[2],> 30000 nM
same,EC50,[3]; [6],136 nM
same,EC50,[4]; [7],253 nM
Cc1nc(-c2ccccc2)cn1-c1ccc(C(=O)NC2CC2)s1 [Compound 74],IC50,[1]; [5],220 nM
same,IC50,[2],> 30000 nM
same,EC50,[3]; [6],124 nM
same,EC50,[4]; [7],206 nM
Cc1cccc2c1nc(C)n2-c1ccc(C(=O)NC2CC2)s1 [Compound 65],IC50,[1]; [5],42 nM
same,IC50,[2],> 30000 nM
same,EC50,[3]; [6],9 nM
same,EC50,[4]; [7],13 nM
Cc1ccc2c(c1)nc(C)n2-c1ccc(C(=O)NC2CC2)s1 [Compound 44],IC50,[1]; [5],56 nM
same,IC50,[2],> 30000 nM
same,EC50,[3]; [6],34 nM
same,EC50,[4]; [7],48 nM
CCCc1nc2ccccc2n1-c1ccc(C(=O)NC2CC2)s1 [Compound 67],IC50,[1]; [5],180 nM
same,IC50,[2],25600 nM
same,EC50,[3]; [6],389 nM
same,EC50,[4]; [7],629 nM
O=C(NC1CCC1)c1ccc(-n2cnc3ccccc32)s1 [Compound 38],IC50,[1]; [5],418 nM
same,IC50,[2],> 30000 nM
same,EC50,[3]; [6],408 nM
same,EC50,[4]; [7],442 nM
CCNC(=O)c1ccc(-n2c(C)nc3cc(Cl)ccc32)s1 [Compound 52],IC50,[1]; [5],94 nM
same,IC50,[2],> 30000 nM
same,EC50,[3]; [6],53 nM
same,EC50,[4]; [7],104 nM
CCCNC(=O)c1ccc(-n2c(C)nc3cc(F)ccc32)s1 [Compound 50],IC50,[1]; [5],499 nM
same,IC50,[2],> 30000 nM
same,EC50,[3]; [6],255 nM
same,EC50,[4]; [7],538 nM
O=C(NC1CC1)c1ccc(-n2cnc3ccccc32)s1 [Compound 23],IC50,[1]; [5],56 nM
same,IC50,[2],> 30000 nM
same,EC50,[3]; [6],79 nM
same,EC50,[4]; [7],88 nM
CCCc1nc2ccccc2n1-c1ccc(C(=O)NCC)s1 [Compound 59],IC50,[1]; [5],334 nM
same,IC50,[2],19400 nM
same,EC50,[3]; [6],382 nM
same,EC50,[4]; [7],467 nM
Cc1nc2ccccc2n1-c1ccc(C(=O)NC2CC2)s1 [Compound 32],IC50,[1]; [5],74 nM
same,IC50,[2],> 30000 nM
same,EC50,"[3]; Table 2b, read-out: 3D7 EC50",105 nM
same,EC50,"[4]; Table 2b, read-out: Dd2 EC50",114 nM
Cc1nc2cc(C(F)(F)F)ccc2n1-c1ccc(C(=O)NC2CC2)s1 [Compound 64],IC50,[1]; [5],41 nM
same,IC50,[2],28000 nM
same,EC50,[3]; [6],8 nM
same,EC50,[4]; [7],12 nM
CNC(=O)c1ccc(-n2cnc3ccccc32)s1 [Compound 24],IC50,[1]; [5],1080 nM
same,IC50,[2],> 30000 nM
same,EC50,[3]; [6],276 nM
same,EC50,[4]; [7],422 nM
CCNC(=O)c1ccc(-n2c(CC)nc3ccccc32)s1 [Compound 63],IC50,[1]; [5],137 nM
same,IC50,[2],> 30000 nM
same,EC50,[3]; [6],141 nM
same,EC50,[4]; [7],146 nM
CCNC(=O)c1ccc(-n2c(C)nc3cc(F)ccc32)s1 [Compound 53],IC50,[1]; [5],164 nM
same,IC50,[2],> 30000 nM
same,EC50,[3]; [6],66 nM
same,EC50,[4]; [7],106 nM
Cc1nc2ccccc2n1-c1ccc(C(=O)NC2CC2)s1 [Compound 31],IC50,[1]; [5],99 nM
same,IC50,[2],> 30000 nM
same,EC50,[3]; [6],66 nM
same,EC50,[4]; [7],106 nM
CCCNC(=O)c1ccc(-n2c(C)nc3cc(Cl)ccc32)s1 [Compound 51],IC50,[1]; [5],239 nM
same,IC50,[2],> 30000 nM
same,EC50,[3]; [6],158 nM
same,EC50,[4]; [7],314 nM
CCNC(=O)c1ccc(-n2cnc3cc(C)ccc32)s1 [Compound 61],IC50,[1]; [5],75 nM
same,IC50,[2],21200 nM
same,EC50,[3]; [6],27 nM
same,EC50,[4]; [7],39 nM
CCNC(=O)c1ccc(-n2cc(-c3ccccc3)nc2C)s1 [Compound 75],IC50,[1]; [5],416 nM
same,IC50,[2],> 30000 nM
same,EC50,[3]; [6],278 nM
same,EC50,[4]; [7],283 nM
CCCNC(=O)c1ccc(-n2cnc3cc(Cl)ccc32)s1 [Compound 56],IC50,[1]; [5],324 nM
same,IC50,[2],> 30000 nM
same,EC50,[3]; [6],203 nM
